Holding throughout (assay): NCI anticancer screen, dose series, 48 h
In assay [1] the test system is 786-0 renal.
For assay [2], the system named is A498 renal.
Assay [3] deals with COLO 205 colon.
The subject of assay [4] is EKVX NSCLC.
Assay [5] relates to HT29 colon.
Assay [6] has as its system MALME-3M melanoma.
The test system of assay [7] is OVCAR-5 ovarian.
Assay [8] relates to PC-3 prostate.
The test system of assay [9] is SNB-75 CNS.
For assay [10], the system named is UO-31 renal.

Molecules are shown by their SMILES. “And” between values parts separate entries of the source, which are not always exact repeats. Equal values may be shown once.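 Dose response: 5 concentrations. Exposure: 48 h. Format: 96-well plates. Endpoint: linear interpolation; highest concentration if not reached. Here, GI50 denotes the concentration required for 50% inhibition of growth. TGI denotes the concentration required for complete inhibition of growth.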

With `COC(=O)Oc1nn(C(=O)OC)c(=O)c2ccccc12` (tested in a mixture with another compound), the TGI is > 100 µM in [1]; 99.4 µM in assay [2]; > 100 µM in assay [3]; > 100 µM in [4]; > 100 µM in assay [5]; > 100 µM in assay [6]. The TGI in assay [7], in [8], in assay [9] and in [10] was > 100 µM throughout.
`Nc1nccc(C#Cc2cncnc2Nc2ccc(OCc3cccc(F)c3)c(Cl)c2)n1`: the GI50 in [1] was 7.69 µM; in assay [2], 5.05 µM; in assay [3] it was 3.96 µM; in assay [4], 4.51 µM; in [5] it was 4.57 µM; in [6], 5.26 µM. The GI50 in [7] is 5.45 µM; in assay [8], 4.5 µM; in [9], 5.75 µM; in [10], 4.34 µM. Besides, the TGI in [1] is > 20.1 µM; in assay [2], > 14.3 µM; in assay [3], 8.6 µM; in assay [4] it was 9.85 µM; in [5] it was 9.05 µM; in assay [6], 13.1 µM. The TGI is 11.3 µM in assay [7], 9.63 µM in [8], > 14.3 µM in [9] and 10.1 µM in assay [10].
As to `CN(C)c1ccc(N=C(C#N)c2nc(N)nc(N3CCOCC3)n2)cc1`, the GI50 was 35.6 µM in [1]; > 100 µM in [3]; > 100 µM in assay [4]; 67.5 µM in assay [5]; 16.4 µM in assay [6]; > 100 µM in assay [7]. The GI50 was 44.1 µM in [8], 18.7 µM in [9] and 71.7 µM in [10]. In addition, the TGI in [1] is > 100 µM; in [3], > 100 µM; in assay [4] it was > 100 µM; in [5] it was > 100 µM; in [6], 49.4 µM; in [7] it was > 100 µM. In addition, the TGI was > 100 µM in [8], 49.4 µM in assay [9] and > 100 µM in assay [10].
Take `S=c1nc(/C=C/c2ccc(Cl)c(Cl)c2)[nH][nH]1`: the TGI in [1], in assay [2], in assay [4], in assay [5], in [6] and in assay [7] was > 100 µM throughout. For the same molecule, the TGI in [8], in assay [9] and in [10] was > 100 µM throughout. In addition, the GI50 in assay [8] is 53.4 µM; in assay [9], > 100 µM.
Regarding `CC(=O)NNc1nc(C)c(C(/C=C/c2ccc3c(c2)OCO3)=N/NC(=O)c2ccncc2)s1`, the TGI in [1], in assay [2], in [4], in assay [5], in assay [6] and in assay [7] was > 100 µM in each case. Also, the TGI in [8], in assay [9] and in [10] was > 100 µM throughout.
Regarding `CN(C)CC1CCCC(CN(C)C)C1=O` (stereo not given), the TGI in assay [1] is 5.94 µM and 4.61 µM; in [2] it was 34.5 µM and > 100 µM; in assay [3] it was 3.4 µM and 9.47 µM; in [4] it was 17.8 µM and 14.1 µM; in assay [6], 1.61 µM and 6.54 µM; in assay [7], 32.7 µM and 33.7 µM. Besides, the TGI in assay [8] is 33.4 µM and 16.9 µM; in assay [9], 29.8 µM and 31.1 µM. Also, the GI50 was 19.1 µM and > 100 µM in assay [2]; 0.653 µM and 2.61 µM in assay [6]; 18.7 µM and 4.98 µM in assay [8].
With `CCN=C(N)CSS(=O)(=O)O`, the TGI in assay [1], in assay [2], in assay [3], in assay [4], in assay [5] and in [6] was > 100 µM each time. In addition, the TGI in assay [7], in [8] and in [9] was > 100 µM in each case.
Consider `Cn1cc(-c2nonc2-c2cn(C)c3ccc(Br)cc23)c2ccccc21`, for which the GI50 in assay [1] is 6.18 µM; in [2] it was 3.38 µM; in assay [4], 3.82 µM; in assay [5], 3.26 µM; in assay [6], 4.86 µM; in assay [7], 7.05 µM. Further, the values for the GI50 in [8], in assay [9] and in assay [10] were 4.06 µM, 1.77 µM and 3.39 µM, respectively. Also, the TGI in [1], in assay [2], in assay [4], in assay [5], in assay [6] and in [7] was > 100 µM in each case. In addition, the figures for the TGI in assay [8], in [9] and in assay [10] were > 100 µM, 7.71 µM and > 100 µM, respectively.
Consider `Cn1cccc1C1CC(=O)N(CCC[Se]C#N)C1=O` (stereo not given), for which the GI50 in assay [1] was 1.95 µM; in [2], 1.3 µM; in [3] it was 2.1 µM; in assay [4] it was 1.93 µM; in assay [5] it was 2.72 µM; in [6], 1.89 µM. Besides, the figures for the GI50 in assay [7], in assay [8] and in assay [10] were 2.49 µM, 2.19 µM and 1.57 µM, respectively. In addition, the TGI in assay [1] came out at 3.44 µM; in assay [2], 2.78 µM; in assay [3], 4.88 µM; in [4] it was 4.46 µM; in assay [5] it was 28.6 µM; in [6] it was 4.12 µM. Also, the TGI in assay [7] amounted to 6.51 µM; in assay [8], 5.63 µM; in assay [10], 3.29 µM.
Regarding `C=C1CCC2C3(C)COC(c4cccc(Cl)c4)OC3CCC2(C)C1/C=C/C1=CCOC1=O` (stereo not given), the GI50 is > 100 µM in [1]; 2.54 µM in assay [2]; 2.55 µM in assay [4]; 5.32 µM in assay [5]; > 100 µM in assay [6]; > 100 µM in [7]. Further, the results for the GI50 in [8] and in assay [9] were 3.77 µM and 6.46 µM, respectively. Moreover, the TGI in assay [1], in assay [2], in [4], in [5], in [6] and in assay [7] was > 100 µM in each case. Moreover, the TGI in assay [8] and in [9] was > 100 µM in each case.
As for `c1ccc2c(c1)SCCCSCCCS2`, the TGI in assay [1], in assay [3], in [4], in assay [7], in assay [8] and in [9] was > 100 µM throughout.
In the case of `CC1(C)CCC(CN2CCN(c3ccc(C(=O)NS(=O)(=O)c4ccc(NCC5CCOCC5)c([N+](=O)[O-])c4)c(Oc4cnc5[nH]ccc5c4)c3)CC2)=C(c2ccc(Cl)cc2)C1`, the GI50 in assay [1] is 3.54 µM; in assay [2] it was 1.58 µM; in [3], 1.95 µM; in [5], 2.49 µM; in assay [6] it was 1.82 µM; in assay [7], 3.19 µM. Also, the GI50 in assay [8] was 1.93 µM; in [9], 3.71 µM; in assay [10], 2.57 µM. For the same molecule, the TGI in assay [1] stood at 12.5 µM; in assay [2] it was 4.43 µM; in assay [3], 3.7 µM; in assay [5], 6.45 µM; in assay [6], 3.64 µM; in [7], 11.6 µM. Also, the TGI in [8] came to 5.54 µM; in assay [9], 15.1 µM; in assay [10], 8.26 µM.
Take `Cc1nc(N=C(N)N)nc2ccc3ccccc3c12`: the GI50 in assay [1] is 1.11 µM; in assay [2], 1.54 µM; in assay [3], 1.13 µM; in assay [5], 1.95 µM; in [7], 2.29 µM; in assay [8] it was 1.26 µM. Further, the values for the GI50 in [9] and in [10] were 0.524 µM and 2.14 µM, respectively. In addition, the TGI in assay [1] amounted to 3.01 µM; in [2], 3.23 µM; in assay [3], 3.13 µM; in assay [5], 4.96 µM; in assay [7], 7.52 µM; in [8], 4.1 µM. For the same molecule, the TGI turned out to be 1.97 µM in assay [9] and 8.52 µM in assay [10].
Consider `O=C1/C(=C\c2ccccc2)CN(C(=O)c2ccccc2F)C/C1=C\c1ccccc1`, for which the GI50 in [1] is 1.85 µM; in assay [2], 2.63 µM; in assay [3] it was 2.05 µM; in [5], 1.48 µM; in assay [6], 2.24 µM; in assay [7] it was 2.16 µM. In addition, the GI50 is 2.34 µM in assay [8], 3.5 µM in [9] and 1.53 µM in assay [10]. Moreover, the TGI in [1] amounted to 3.56 µM; in [2], 13.2 µM; in assay [3], 4.03 µM; in assay [5], 4.17 µM; in assay [6], 4.75 µM; in [7], 5.38 µM. Moreover, the values for the TGI in assay [8], in [9] and in [10] were 7.22 µM, 14.5 µM and 3.24 µM, respectively.
`Nc1cc2c3c(cccc3c1)C(=O)N(CCN1CCN(CCN3C(=O)c4cccc5cc(N)cc(c45)C3=O)CC1)C2=O`: the TGI in [1], in [2], in [3], in [4], in assay [5] and in [6] was > 100 µM in each case. Besides, the TGI in assay [7], in assay [9] and in [10] was > 100 µM throughout.
For `Cc1ccc(C)c(NC(=O)CCC(=O)CC(=O)C(C)(C)C)c1`, the TGI in assay [1], in [2], in [3], in [4], in assay [5] and in assay [6] was > 100 µM throughout. In addition, the TGI in [7], in assay [9] and in assay [10] was > 100 µM in each case.
For `O=C1NCC2=C1CCC1c3ccccc3CCN21` (stereo not given), the TGI in [1], in assay [2], in assay [3], in assay [4], in assay [5] and in assay [6] was > 100 µM in each case. Moreover, the TGI in assay [7], in assay [9] and in assay [10] was > 100 µM in each case.
With `CC1(C)OCC(C2OC(On3nnc4ccc(Cl)cc43)C3OC(C)(C)OC23)O1` (stereo not given), the TGI in [1], in assay [2], in [3], in assay [4], in assay [5] and in assay [6] was > 100 µM in each case. Besides, the TGI in assay [7], in assay [8] and in assay [9] was > 100 µM in each case.
`CC1=C(C(=O)Nc2cc(F)c(F)cc2F)C(c2cccc([N+](=O)[O-])c2)C(C(=O)Nc2ccccc2C(F)(F)F)=C(C)N1` (stereo not given): the TGI in assay [1] was 40.3 µM; in assay [2] it was 45 µM; in assay [3] it was > 100 µM; in assay [4] it was 77.1 µM; in assay [5], 62.8 µM; in [6], 77.8 µM. In addition, the TGI in assay [7] worked out at 62.1 µM; in [9], 38.4 µM; in [10] it was 42 µM.
In the case of `CCOC(=O)C1=C(O)CSC1=Nc1ccc(N=C2SCC(O)=C2C(=O)OCC)cc1`, the TGI was found to be 31.4 µM in assay [1]; 50.5 µM in [2]; 32.5 µM in assay [3]; 96.7 µM in assay [4]; 60.2 µM in [5]; 40.4 µM in assay [6]. For the same molecule, the TGI in assay [7] was 54 µM; in assay [9] it was 61.4 µM; in assay [10], 37.7 µM.
Take `OCCC#Cc1ccccc1C#Cc1ccccc1`: the GI50 in assay [1] is 16.1 µM; in assay [3], 19.4 µM; in assay [4], 11.3 µM; in [5], 18 µM; in [6] it was 14 µM; in assay [7] it was 16.9 µM. For the same molecule, the values for the GI50 in [8], in assay [9] and in [10] were 13.7 µM, 19.8 µM and 34.3 µM, respectively. Moreover, the TGI in [1] is 31.3 µM; in assay [3] it was 38 µM; in assay [4], 24.3 µM; in [5], > 100 µM; in [6] it was 27.1 µM; in assay [7], 50.7 µM. Besides, the TGI in assay [8] is 35.5 µM; in [9], 53.4 µM; in assay [10], > 100 µM.

The values above are taken from PubChem BioAssay (NCI).
